From patent US11845927B2, “Bioremediation using co-metabolism substrates” (Oregon State University, priority 2018, dated 2023)
Values after ≈ are worked out from the molar mass of the structure shown. Where two headings read alike, the source gives them in different places.

Legend:
[1] = tested on: short chain alkane monoxygenase (SCAM); assay: Activity-based labeling (ABL) of SCAM after growth on substrates; assay type: cell-based, Rhodococcus rhodochrous 21198; conditions: 21198 grown on the substrate
Source text: ABL testing was used to identify alcohol growth substrates that induce SCAM expression and activity and result in co-metabolic transformation of contaminants, such as 1,4-D and CAHs.

[2] = Growth substrates: final OD and % removal of cis-DCE and TCE (Table 1); assay type: cell-based; conditions: culture grown on the listed substrate
[3] = cited from earlier work; for Henry's Constant, Hcc: dimensionless
[4] = tested on: Burkholderia vietnamiensis G4; assay: Resting cell TCE transformation tests with G4; assay type: cell-based; conditions: G4 grown on the substrate
Source text: This example concerns COC cometabolism by Burkholderia vietnamiensis G4 (G4).

[5] = tested on: Rhodococcus rhodochrous 21198; assay: Resting cell co-metabolic transformation tests with 21198; assay type: cell-based; conditions: 21198 grown on isobutane, previous batch experiments
[6] = Alcohol release from orthosilicates in poisoned control batch reactors; assay type: physicochemical
Source text: A slow but gradual rate of O2 consumption was observed, when headspace O2 concentrations are compared to the poisoned controls (FIG. 13). […] T2BOS is not rapidly utilized by 21198 like observed with sBA (FIG. 15), and 2-butanol is released by abiotic hydrolysis. The slow rate of hydrolysis is indicated by the measured 2-butanol concentrations in the poisoned reactor. Over the period of 60 to 125 days approximately 50 μmol of 2-butanol was formed.
Tetraisopropoxysilane (T2POS) is a 2-propanol releasing orthosilicate, similar to TBOS and T2BOS. […] The smaller 2-propanol therefore would be released from T2POS more rapidly than 2-butanol from T2BOS [6], but slower than TBOS. An identical test was performed to those presented for TBOS and T2BOS. The same growth indicators, CO2, O2, and 2-propanol, were tracked throughout the experiment (FIG. 18).

[7] = Abiotic hydrolysis of suspended and encapsulated TBOS and T2BOS; assay type: physicochemical; conditions: for factor of decrease of hydrolysis rate in encapsulated beads compared to solution: similar masses present
Description: This example concerns abiotic hydrolysis experiments. Batch reactors similar to the CoC transformation reactors were used to determine the rate of hydrolysis of TBOS and T2BOS free suspended in solution and encapsulated at different mass loadings in both alginate and gellan gum. These batch kinetic tests were conducted at a constant 20° C. in 155 mL glass Wheaton bottles sealed with reusable screw on caps fitted with gray butyl rubber septa. Reactors were filled with 100 mL of pH-7 carbonate buffered MSM followed by an addition of free suspended or encapsulated SRCs. The total mass of SRC added to each reactor was dependent on various parameters but ranged from 1000-1500 mg/L. All hydrolysis rates observed here were abiotic hydrolysis rates, which was ensured by the addition of 0.2% (w/v) sodium azide as a microbial poison and typically measurements of respiration data (O2/CO2).
Reactors with TBOS and T2BOS in free suspension at concentrations that replicate encapsulated SRC reactors were created to determine the effect of encapsulation on SRC hydrolysis. Substrate production rates were used as a proxy for SRC hydrolysis, due to the simplicity of substrate analysis. Direct measurements of 1- and 2-butanol in solution were made in order to determine substrate production rates and measurements are presented on a total mass produced basis. Hydrolysis of orthosilicate compounds is acid and base catalyzed and therefore, observed hydrolysis rates are on the low end of what is possible, due to suspension in pH-7 media.
The concentrations of TBOS and T2BOS in solution effects the rate of hydrolysis, and therefore, concentrations of SRCs in abiotic reactors were created to mimic the concentration of SRCs in biotic co-encapsulated reactors, ˜1000-1500 mg/L. Biotic and abiotic reactors were created in unison and monitored alongside one another, though abiotic data have been separated and are presented below. To prevent contamination from occurring over the long duration of these experiments sodium azide, 0.2% (w/v), was added to all abiotic reactors.
Due to the ease of encapsulation of SRCs within alginate, initial abiotic hydrolysis work was conducted using alginate encapsulated TBOS. TBOS was encapsulated in abiotic alginate macro-beads at a mass loading of ˜5% and 30% (w/w). These beads were then added to triplicate reactors, such that the final TBOS concentration in pH-7 carbonate buffered media was kept constant at ˜1000 mg/L; i.e., 2 grams of 5% beads and ⅓ grams of 30% beads were added to 100 mL media solution. […] To illustrate the effect of encapsulation on the hydrolysis rate of TBOS, reactors containing similar concentrations of suspended TBOS were created and monitored alongside encapsulated TBOS reactors.
Total TBOS solution concentrations of ˜1000 mg/Land bead mass loading ˜5 and 30% (w/A). Datapoints are averages between duplicate (suspended) or triplicate (encapsulated) reactors in each treatment and errors bars are 95% confidence intervals. Suspended TBOS reactors were created after encapsulated reactors and therefore, have a shorter total duration of measurements.
The abiotic hydrolysis rate of both TBOS and T2BOS encapsulated in gellan gum was also investigated. Both SRCs were encapsulated in cylindrical gellan macro-beads at mass loadings of ˜8% (w/w). For this work ATCC 21198 was also co-encapsulated within the gellan gum matrix at initial concentrations of ˜0.5 mgTss/g, and an addition of 0.2% (w/v) sodium azide was added as a cellular poison to ensure cells were not alive within the matrix. Biomass was encapsulated because it had been determined that encapsulated SRCs may hydrolyze more quickly with cells present within the encapsulation matrix. Although, the increase in hydrolysis rate was not proven to be from biotic hydrolysis of SRCs and may have been due to the presence of biomass within the matrix allowing more diffusion of water into and butanol out of beads. […]

[8] = tested on: Rhodococcus rhodochrous 21198; assay: Growth cometabolism batch tests of 21198 on 2-butanol or orthosilicate SRCs; assay type: cell-based; conditions: for first order rate of 1,4-D transformation / first-order rate of 1,1,1-TCA transformation: 21198 grown in the presence of the orthosilicate; for period over which cometabolic transformation of 1,1,1-TCA and 1,4-D was maintained: single addition of the SRC
Description: Growth on 2-butanol was tracked by the production of CO2, the increase in optical density and the consumption of 2-butanol (FIG. 11).
Three additions of 1,1,1-TCA and 1,4-D were made to the two biologically active reactors at 0, 21, and 60 days. […] A third addition of 1,1,1-TCA and 1,4-D was made to the active bottles around day 60.
The same growth cometabolism test performed with T2BOS as an SRC was performed for TBOS (FIGS. 16 and 17).
Tetraisopropoxysilane (T2POS) is a 2-propanol releasing orthosilicate, similar to TBOS and T2BOS. […] An identical test was performed to those presented for TBOS and T2BOS. The same growth indicators, CO2, O2, and 2-propanol, were tracked throughout the experiment (FIG. 18).

[9] = cited from earlier work
[10] = abiotic hydrolysis, aqueous alcohol
[11] = Table 15, summary of abiotic hydrolysis rates

1-Propanol
SCAM activity / protein banding pattern [1]: not induced
% REMOVAL Cis-DCE [2]: 44%
FINAL OD(550) [2]: 0.24

1-butanol
SCAM activity / protein banding pattern [1]: not induced
% REMOVAL Cis-DCE [2]: 98%
% REMOVAL TCE [2]: 16%
FINAL OD(550) [2]: 0.24

2-butanol
SCAM activity / protein banding pattern [1]: observed

CC(Cl)(Cl)Cl [1,1,1-Trichloroethane]
Solubility, Sw [3]: 1,290 mg/L
Henry's Constant, Hcc [3]: 0.548

C1COCCO1 [1,4-Dioxane]
Henry's Constant, Hcc [3]: 0.000198

CC=CCO [2-buten-1-ol]
% REMOVAL Cis-DCE [2]: 67%
% REMOVAL TCE [2]: 20%
FINAL OD(550) [2]: .023

CC(C)O [2-propanol]
SCAM activity / protein banding pattern [1]: faint banding pattern

C=CCCO [3-buten-1-ol]
% REMOVAL Cis-DCE [2]: 89%
% REMOVAL TCE [2]: 21%
FINAL OD(550) [2]: .022

C=CC(C)O (centres unmarked) [3-buten-2-ol]
FINAL OD(550) [2]: 0.03

CC(=O)O [Acetate]
TCE transformation by resting cells [4]: Slow rates
% REMOVAL Cis-DCE [2]: 73%
FINAL OD(550) [2]: 0.33

O=C(O)c1ccccc1 [Benzoate]
% REMOVAL Cis-DCE [2]: 84%
% REMOVAL TCE [2]: 6%
FINAL OD(550) [2]: 0.24

OCc1ccccc1 [Benzyl alcohol]
TCE transformation by resting cells [4]: rapidly cometabolized
% REMOVAL TCE [2]: 100%

CCCC(=O)O [Butyrate]
% REMOVAL TCE [2]: 9%

CCO [Ethanol]
SCAM activity / protein banding pattern [1]: not induced

CC(C)C [Isobutane]
SCAM activity / protein banding pattern [1]: strongest banding pattern
Solubility, Sw [3]: 48.9 mg/L (≈ 841 µM)
Henry's Constant, Hcc [3]: 49.2
VC transformation rate [5]: about 14 μmol/mg TSS/day

Oc1ccccc1 [Phenol]
TCE transformation by resting cells [4]: slower transformation rates
% REMOVAL TCE [2]: 100%

CCC(C)O[Si](OC(C)CC)(OC(C)CC)OC(C)CC (centres unmarked) [T2BOS, tetra-sec-butyl orthosilicate]
2-butanol production rate in poisoned control [6, 10]: 0.76 µmol/day
2-butanol formed in poisoned reactor ([6]; over the period of 60 to 125 days, T2BOS 1500 mg/L): approximately 50 μmol
Estimated Exhaustion of T2BOS ([7]; Table 13): 12.9 years
Butanol Production Rate ([7]; Table 13, SRC ~1500 mg/L, pH-7): 0.40 µmol/day
Estimated Exhaustion of TBOS ([7]; Table 14): 12.9 years
Butanol Production Rate ([7]; Table 14, SRC 1500 mg/l): 0.40 µmol/day
Estimated Exhaustion of SRS ([7]; Table 15): 12.9 years
Butanol Production Rate [7, 11]: 0.40 µmol/day
factor of decrease of hydrolysis rate in encapsulated beads compared to solution [7]: 10
first order rate of 1,4-D transformation [8]: 0.04 day⁻¹
first-order rate of 1,1,1-TCA transformation [8]: 0.037 day⁻¹
period over which cometabolic transformation of 1,1,1-TCA and 1,4-D was maintained [8]: 125 days
estimated solubility [9]: 6.8 µg/mL
estimated solubility ([9]; listed as tetra-sec-butyl orthosilicate): 3.8 µg/mL

CC(C)O[Si](OC(C)C)(OC(C)C)OC(C)C [T2POS, tetraisopropoxysilane]
alcohol production rate in poisoned control [6, 10]: 5.1 µmol/day
first order rate of 1,4-D transformation [8]: 0.24 day⁻¹
first-order rate of 1,1,1-TCA transformation [8]: 0.14 day⁻¹

CCCCO[Si](OCCCC)(OCCCC)OCCCC [TBOS, tetrabutyl orthosilicate]
alcohol production rate in poisoned control [6, 10]: 11 µmol/day
Estimated Exhaustion of TBOS ([7]; Table 12): 0.6 years
Butanol Production Rate ([7]; Table 12, 1-butanol, TBOS ~1000 mg/L, pH-7, 20° C.): 5.9 µmol/day
Estimated Exhaustion of SRS ([7]; Table 15): 0.58 years
Butanol Production Rate [7, 11]: 5.91 µmol/day
factor of decrease of hydrolysis rate in encapsulated beads compared to solution [7]: 10
first order rate of 1,4-D transformation [8]: 0.76 day⁻¹
first-order rate of 1,1,1-TCA transformation [8]: 0.47 day⁻¹
period over which cometabolic transformation of 1,1,1-TCA and 1,4-D was maintained [8]: 45 days

C#C [acetylene, reference compound]
effect on transformation of 1,1,1-TCA and 1,4-D ([8]; acetylene present during growth of 21198 on 2-butanol): blocked

CC(=O)OCc1ccccc1 [benzyl acetate]
TCE transformation by resting cells [4]: slower transformation rates

CCCC(=O)OCc1ccccc1 [benzyl butyrate]
TCE transformation by resting cells [4]: rapidly cometabolized

CCC(C)OC(C)=O (centres unmarked) [sec-butyl acetate]
estimated solubility [9]: 3520 µg/mL
